Measurements: PubChem BioAssay (NCI)
Several values for one entry are separate records, joined by “and”; a condition that tells them apart may be missing. Equal entries are not always repeated.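 96-well plates; 48 h exposure; 5 concentrations. Endpoints by linear interpolation between flanking doses. Not reached: highest tested concentration assigned. GI50 = concentration required for 50% inhibition of growth. TGI: total growth inhibition.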 Where a SMILES comes first, the peptide text is derived from it. [ ]: non-standard residue; d: D form. The star is where a group is joined. ξ: configuration not given here. X16 = COC1=CC(=O)N(C(=O)C(O*)C(C)C)C1Cc1ccccc1; ξNMe2Val = CC(C)C(C(=O)*)N(C)C; NMeV = CN[CH](C(=O)O)C(C)C

Assays:
Experiment in all cases: inhibition of tumour cell growth, NCI panel, 48 h
[1] = system: K-562 leukemia
[2] = system: RPMI-8226 leukemia
[3] = system: SR leukemia
[4] = system: SK-MEL-2 melanoma
[5] = system: MOLT-4 leukemia
[6] = system: SF-295 CNS
[7] = system: HCT-116 colon
[8] = system: SK-MEL-28 melanoma
[9] = system: SN12C renal
[10] = system: NCI/ADR-RES ovarian

| Structure (SMILES) | TGI [1] | TGI [2] | TGI [3] | TGI [4] | TGI [5] | TGI [6] | TGI [7] | TGI [8] | TGI [9] | TGI [10] | GI50 [1] | GI50 [2] | GI50 [5] | GI50 [6] | GI50 [7] | GI50 [9] | GI50 [4] |
| --- | --- | --- | --- | --- | --- | --- | --- | --- | --- | --- | --- | --- | --- | --- | --- | --- | --- |
| O=C(CCN1CCCCC1CCO)Nc1ccc2c(c1)C(=O)c1ccc(NC(=O)CCN3CCCCC3CCO)cc1C2=O (stereo unspecified) | > 100 µM | 31.8 µM | 29.3 µM | 7.27 µM | 39.1 µM | 33.9 µM | 14.7 µM | 23.5 µM | 16 µM |  |  |  |  |  |  |  |  |
| Cc1ccc(-c2cc(-c3ccco3)nc(N)n2)o1 | > 100 µM | > 100 µM | > 100 µM | > 100 µM | > 100 µM | > 100 µM | > 100 µM | > 100 µM | > 100 µM |  |  |  |  |  |  |  |  |
| COC(=O)c1ccc(CN2CCc3c([nH]c4ccccc34)C2CO)o1 (stereo unspecified) | > 10 µM | > 10 µM | > 10 µM |  | > 10 µM | > 10 µM |  | > 10 µM | > 10 µM |  |  |  |  |  |  |  |  |
| C[N+]1(C)C2Cc3ccccc3C1Cc1ccccc12 |  | > 100 µM |  | > 100 µM | > 100 µM | > 100 µM | > 100 µM | > 100 µM | > 100 µM | > 100 µM |  |  |  |  |  |  |  |
| CC12CC3c4ccccc4CN1C3(c1ccccc1)OC2=O (stereo unspecified) |  |  |  | > 100 µM | > 100 µM | > 100 µM | > 100 µM | > 100 µM | > 100 µM | > 100 µM |  |  |  |  |  |  |  |
| COC(=O)[C@]1(C)CCCn2c(=O)n(-c3ccccc3)c(=O)n21 | > 100 µM | > 100 µM |  | > 100 µM | > 100 µM | > 100 µM | > 100 µM | > 100 µM | > 100 µM | > 100 µM |  |  |  |  |  |  |  |
| Oc1c(OCc2nnc(CCCCCCCCc3nnc(COc4ccc5ccccc5c4O)n3Nc3ccccc3)n2Nc2ccccc2)ccc2ccccc12 | > 100 µM | 26.7 µM |  | 27.6 µM | > 100 µM | 13.9 µM | 24.8 µM | 14.3 µM | 29.2 µM | 42.6 µM |  |  |  |  |  |  |  |
| CCOC(=O)c1ccc(NC2Oc3cc4c(cc3C(c3cc(OC)c(OC)c(OC)c3)C2C)OCO4)cc1 (stereo unspecified) |  | 4.92 µM |  | > 63.4 µM | 11.5 µM | 2.9 µM | > 51.7 µM | > 100 µM | > 71.5 µM | 8.27 µM |  |  |  |  |  |  |  |
| NC1=CN(CCCO)C2=N/C(=C\c3ccco3)C(=O)N12 | > 100 µM | > 100 µM |  | > 100 µM | > 100 µM | > 100 µM | > 100 µM | > 100 µM | > 100 µM | > 100 µM |  |  |  |  |  |  |  |
| C=CCN1C(=O)CS/C1=N\NC(=O)c1c(C)nc2sccn12 | > 100 µM | > 100 µM | > 100 µM | > 100 µM | > 100 µM | > 100 µM | > 100 µM | > 100 µM | > 100 µM |  |  |  |  |  |  |  |  |
| COc1ccc(-n2sc3ncc(-c4ccccc4)cc3c2=O)cc1 |  | 66.8 µM |  | > 100 µM |  | > 100 µM | 57.8 µM | > 100 µM | 80.2 µM | > 100 µM |  |  |  |  |  |  |  |
| COc1ccc2c(c1O)-c1c(OC)c(OC)cc3c1[C@H](C2)[N+](C)(C)CC3 | > 100 µM | > 100 µM |  | > 100 µM | > 100 µM | > 100 µM | > 100 µM | > 100 µM | > 100 µM | > 100 µM |  |  |  |  |  |  |  |
| O=C(NCCNCCO)N/N=C/c1cccc([N+](=O)[O-])c1 | > 100 µM | > 100 µM |  | > 100 µM | > 100 µM | > 100 µM | > 100 µM | > 100 µM | > 100 µM |  |  |  |  |  |  |  |  |
| COc1c2nc(CCl)n(C)c(=O)c2c(OC)c2c(=O)n(C)c(CCl)nc12 | 7.83 µM | 1.64 µM |  |  | 1.54 µM | 5.16 µM |  | 3.94 µM | 3.56 µM | 6.88 µM |  |  |  |  |  |  |  |
| Cc1c(C)c(C)c(-n2c(=O)n(C)c(=O)n2C(C)(C)C)c(C)c1C | > 100 µM | > 100 µM | > 100 µM | > 100 µM | > 100 µM | > 100 µM | > 100 µM | > 100 µM | > 100 µM |  |  |  |  |  |  |  |  |
| C=C1CC2CC[C@@]34C[C@@H]5O[C@@H]6C(O[C@H]7CC[C@H](CC(=O)OC8[C@@H](C)C9OC%10C[C@]%11(C[C@@H]%12O[C@@]%13(C[C@@H](C)[C@@H]%12O%11)C[C@H](C)[C@@H]%11OC%12CC(C(O)CO)OC%12C[C@@H]%11O%13)OC%10CC9O[C@H]8C[C@H]8O[C@@H](CC[C@@H]1O2)C[C@@H](C)C8=C)O[C@@H]7[C@@H]6O3)C5O4 (stereo partly specified) | > 1.48 µM | > 1.48 µM |  | 0.00727 µM | 0.104 µM | 0.00266 µM and 0.000528 µM | 0.00327 µM |  | > 1.48 µM | 0.0304 µM | < 0.148 nM | < 0.148 nM | < 0.148 nM | < 0.148 nM | < 0.148 nM | < 0.148 nM |  |

| Structure (SMILES) | TGI [1] | TGI [2] | TGI [3] | TGI [4] | TGI [5] | TGI [6] | TGI [7] | TGI [8] | TGI [9] | TGI [10] | GI50 [1] | GI50 [2] | GI50 [5] | GI50 [6] | GI50 [7] | GI50 [9] | GI50 [4] |
| --- | --- | --- | --- | --- | --- | --- | --- | --- | --- | --- | --- | --- | --- | --- | --- | --- | --- |
| COC(=O)C(=O)C(C(=O)C(=O)Nc1ccccc1C(=O)OC)c1nc2ccc(C(=O)c3ccccc3)cc2[nH]c1=O (stereo unspecified) | > 100 µM | > 100 µM |  | > 100 µM |  | > 100 µM | > 100 µM | > 100 µM | > 100 µM | > 100 µM |  |  |  |  |  |  |  |
| CC1=C/C(=C(\c2ccc(N(C)C)cc2)c2ccc([N+](C)(C)C)cc2)C=CC1=[N+](C)C | > 100 µM | 5.44 µM | 4.75 µM | 35 µM | 28.2 µM | 19.3 µM | 14.3 µM | 31.4 µM | 22.4 µM |  |  |  |  |  |  |  |  |
| O=[N+]([O-])/C(C(Cl)=C(Cl)Cl)=C1\Nc2ccccc2O1 | > 100 µM | 75.6 µM | 63.7 µM | > 100 µM | 77.9 µM | > 100 µM | > 100 µM | > 100 µM | > 100 µM |  |  |  |  |  |  |  |  |
| Cc1c2c(n3c(nc4ccccc43)c1C#N)N(c1ccc(Cl)cc1)CC2 | > 100 µM |  |  | > 100 µM |  | > 100 µM | > 100 µM | > 100 µM | > 100 µM | > 100 µM |  |  |  |  |  |  |  |
| CC(C)(C)C1CC[C@H]2c3c([nH]c4ccc(Br)cc34)[C@H]3C(=O)N(c4ccccc4)C(=O)[C@H]3[C@H]2C1 (stereo partly specified) | > 100 µM | > 100 µM | 12.1 µM | > 100 µM | 71.6 µM | 43.1 µM | > 100 µM | > 100 µM | 57.3 µM |  |  |  |  |  |  |  |  |
| c1ccc2[nH]c(-c3nc4ccccc4o3)nc2c1 |  | > 100 µM | > 100 µM | > 100 µM | > 100 µM | > 100 µM | > 100 µM | > 100 µM | > 100 µM |  |  |  |  |  |  |  |  |
| C=C(NC(=O)C(=C)NC(=O)c1csc(C2=NC3c4csc(n4)C4NC(=O)c5csc(n5)C(C(C)(O)C(C)O)NC(=O)C5CSC(=N5)/C(=C/C)NC(=O)C(C(C)O)NC(=O)c5csc(n5)C3(CC2)NC(=O)C(C)NC(=O)C(=C)NC(=O)C(=C)NC(=O)C(C(C)C)NC2C=Cc3c(C(C)O)cc(nc3C2O)C(=O)OC4C)n1)C(N)=O (stereo unspecified) | > 48.3 µM | 13.6 µM |  | > 38.9 µM |  | > 100 µM | 2.64 µM | > 62.1 µM | > 38 µM | > 100 µM |  |  |  |  |  |  |  |
| COC1=CC(=O)N(C(=O)C(OC(=O)C2CCCN2C(=O)C2CCCN2C(=O)C(C(C)C)N(C)C(=O)C(NC(=O)C(C(C)C)N(C)C)C(C)C)C(C)C)C1Cc1ccccc1 (stereo unspecified) (ξNMe2Val-V[NMeV]PP-X16; configuration not given here) |  | > 4 µM |  |  |  | 0.0074 µM and 0.00436 µM |  | 0.00681 µM |  | 0.256 µM |  | < 0.4 nM | < 0.4 nM | < 0.4 nM |  | < 0.4 nM | < 0.4 nM |
| CN(C)[C@@H]1C(=O)C(C(N)=O)=C(O)[C@@]2(O)C(=O)C3=C(O)c4c(O)cccc4C[C@H]3C[C@@H]12 | 6.65 µM |  | 6.05 µM | 3.31 µM | 5.55 µM | 3.22 µM | 3.28 µM | 3.19 µM |  |  |  |  |  |  |  |  |  |
| CS(=O)(=O)NNS(=O)(=O)c1ccc(Br)cc1 | > 100 µM | > 100 µM |  | > 100 µM |  |  | > 100 µM | > 100 µM |  |  |  |  |  |  |  |  |  |
| O=c1[nH]cnc2c1nnn2CCCn1nnc2c(=O)[nH]cnc21 | > 100 µM | > 100 µM | > 100 µM | > 100 µM | > 100 µM | > 100 µM | > 100 µM | > 100 µM | > 100 µM |  |  |  |  |  |  |  |  |
| c1cnc2c(c1)-n1cccc1C1(CCOCC1)NN2 | > 100 µM | > 100 µM | > 100 µM | > 100 µM | > 100 µM | > 100 µM | > 100 µM | > 100 µM | > 100 µM |  |  |  |  |  |  |  |  |
| COC(=O)/C(=C/c1ccc(OC)cc1)C(C(=O)O)=C(C)C | > 100 µM | > 100 µM | > 100 µM | > 100 µM | > 100 µM | > 100 µM | > 100 µM | > 100 µM | > 100 µM |  |  |  |  |  |  |  |  |
| Oc1c(Cl)c2nccnc2c2ccccc12 | > 100 µM | > 100 µM |  | > 100 µM | > 100 µM | > 100 µM | > 100 µM | > 100 µM | > 100 µM |  |  |  |  |  |  |  |  |
| COc1cc2c(cc1O)[C@H](C)C(c1ccc(Cl)cc1)O2 (stereo partly specified) | 51.7 µM | 25.6 µM |  | 56 µM | 40.9 µM | 82.6 µM | 30.1 µM | > 100 µM |  |  |  |  |  |  |  |  |  |
| On1c(-c2ccccc2)c(-c2c(-c3ccccc3)n(O)c3ccccc23)c2ccccc21 | > 100 µM |  |  | 59.2 µM | > 100 µM | 61.9 µM | > 100 µM | > 100 µM | > 100 µM |  |  |  |  |  |  |  |  |
